How the values were obtained:
CCRF-CEM = assay: Compound was tested for its antitumor activity against human lymphoblastic leukemic cells(CCRF-CEM) in vitro; type: functional, cell-based
[1] = molecular target: T1, Folylpolyglutamate synthase, mitochondrial (Mus musculus) (UniProt P48760); assay: Apparent catalytic rate constants (Km) owas determined from mouse liver Folyl-polyglutamate synthase
T1 sequence (whole entry): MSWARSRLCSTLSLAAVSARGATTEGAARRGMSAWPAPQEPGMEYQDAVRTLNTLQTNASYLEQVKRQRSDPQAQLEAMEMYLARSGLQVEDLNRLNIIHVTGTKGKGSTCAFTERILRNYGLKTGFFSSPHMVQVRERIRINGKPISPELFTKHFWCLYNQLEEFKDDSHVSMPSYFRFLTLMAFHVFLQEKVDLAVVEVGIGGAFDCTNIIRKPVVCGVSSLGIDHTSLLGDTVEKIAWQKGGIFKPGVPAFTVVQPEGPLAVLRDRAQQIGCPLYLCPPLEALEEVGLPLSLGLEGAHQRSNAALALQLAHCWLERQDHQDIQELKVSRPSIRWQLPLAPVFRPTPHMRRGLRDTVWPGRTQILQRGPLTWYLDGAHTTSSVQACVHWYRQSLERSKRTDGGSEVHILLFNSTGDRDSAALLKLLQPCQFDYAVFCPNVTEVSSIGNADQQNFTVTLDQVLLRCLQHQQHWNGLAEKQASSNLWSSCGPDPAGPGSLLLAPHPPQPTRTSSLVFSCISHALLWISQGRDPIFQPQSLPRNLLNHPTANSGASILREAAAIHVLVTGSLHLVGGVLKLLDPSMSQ

[2] = molecular target: T1, Folylpolyglutamate synthase, mitochondrial (Mus musculus); assay: First order catalytic rate constants (k) was determined from mouse liver Folyl-polyglutamate synthase
[3] = molecular target: T1, Folylpolyglutamate synthase, mitochondrial (Mus musculus); assay: Apparent catalytic rate constants (Km) was determined from mouse liver Folyl-polyglutamate synthase
[4] = substrate: Nc1nc(=O)c2nc(CNc3ccc(C(=O)N[C@@H](CCC(=O)O)C(=O)O)cc3)cnc2[nH]1; assay: Catalytic rate folyl-poly-glutamate synthetase
[5] = substrate: Nc1nc(O)c2c(n1)NCC(CNc1ccc(C(=O)N[C@@H](CCC(=O)O)C(=O)O)cc1)C2; assay: (§1) Catalytic rate constants (Vmax) was determined from mouse liver Folyl-polyglutamate synthase
[6] = substrate: Nc1nc(N)c2nc(CNc3ccc(C(=O)N[C@@H](CCC(=O)O)C(=O)O)cc3)cnc2n1; assay: as §1
[7] = substrate: Nc1nc2c(c(=O)[nH]1)C[C@@H](CCc1ccc(C(=O)N[C@@H](CCC(=O)O)C(=O)O)cc1)CN2; assay: as §1

Molecule: Nc1nc2c(c(=O)[nH]1)C[C@@H](CCc1ccc(C(=O)N[C@@H](CCC(=O)O)C(=O)O)cc1)CN2 (stereo in doubt; form 2) [LOMETREXOL]
- IC50 (CCRF-CEM; ccrf-cem): 5 nM

Molecule: Nc1nc(N)c2nc(CNc3ccc(C(=O)N[C@@H](CCC(=O)O)C(=O)O)cc3)cnc2n1
- Km app [1]: 21 µM
- k [2]: 10.1

Molecule: CC(=O)N(CC1CNc2nc(N)nc(O)c2C1)c1ccc(C(=O)N[C@@H](CCC(=O)O)C(=O)O)cc1 (some centres not stated)
- IC50 (CCRF-CEM; Homo sapiens, CCRF-CEM): 600 nM

Molecule: Nc1nc(O)c2c(n1)NCC(CNc1ccc(C(=O)N[C@@H](CCC(=O)O)C(=O)O)cc1)C2 (stereo in doubt; 7a-A)
- IC50 (CCRF-CEM; ccrf-cem): 6 nM

Molecule: Nc1nc(O)c2c(n1)NCC(CNc1ccc(C(=O)N[C@@H](CCC(=O)O)C(=O)O)cc1)C2 (stereo in doubt; 7a)
- Km app [3]: 1.06 µM
- k [2]: 170

Molecule: CN(CC1CNc2nc(N)nc(O)c2C1)c1ccc(C(=O)N[C@@H](CCC(=O)O)C(=O)O)cc1 (some centres not stated)
- IC50 (CCRF-CEM; Homo sapiens, CCRF-CEM): 40 nM

B1: Folylpolyglutamate synthase, mitochondrial (Mus musculus), P48760 (protein)
chain: T1 sequence (whole entry)
- Vmax [4]: 1
- Vmax [5]: 1.3
- Vmax [6]: 1.59
- Vmax [7]: 1.26
